Reference: PubChem BioAssay (NCI)
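Grown in 96-well plates, cells were treated for 48 hours with each compound at five concentrations. Insufficient inhibition: endpoint recorded as highest concentration tested. Definition used: TGI = concentration required for complete inhibition of growth.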

How the values were obtained:
Test in all cases: inhibition of tumour cell growth, NCI panel, 48 h
MCF7 breast = tested on: MCF7 breast
NCI-H226 lung = tested on: NCI-H226 lung
A498 renal = tested on: A498 renal
TK-10 renal = tested on: TK-10 renal
SK-OV-3 ovarian = tested on: SK-OV-3 ovarian
SW-620 colon = tested on: SW-620 colon
PC-3 prostate = tested on: PC-3 prostate
MDA-N = tested on: MDA-N
HOP-62 NSCLC = tested on: HOP-62 NSCLC
NCI-H460 lung = tested on: NCI-H460 lung
SK-MEL-28 melanoma = tested on: SK-MEL-28 melanoma
SN12C renal = tested on: SN12C renal
M14 melanoma = tested on: M14 melanoma
MALME-3M melanoma = tested on: MALME-3M melanoma
COLO 205 colon = tested on: COLO 205 colon
ACHN renal = tested on: ACHN renal
UACC-257 melanoma = tested on: UACC-257 melanoma
LOX IMVI melanoma = tested on: LOX IMVI melanoma
OVCAR-5 ovarian = tested on: OVCAR-5 ovarian
U251 CNS = tested on: U251 CNS

SMILES	TGI (MCF7 breast) [µM]	TGI (NCI-H226 lung) [µM]	TGI (A498 renal) [µM]	TGI (TK-10 renal) [µM]	TGI (SK-OV-3 ovarian) [µM]	TGI (SW-620 colon) [µM]	TGI (PC-3 prostate) [µM]	TGI (MDA-N) [µM]	TGI (HOP-62 NSCLC) [µM]	TGI (NCI-H460 lung) [µM]	TGI (SK-MEL-28 melanoma) [µM]	TGI (SN12C renal) [µM]	TGI (M14 melanoma) [µM]	TGI (MALME-3M melanoma) [µM]	TGI (COLO 205 colon) [µM]	TGI (ACHN renal) [µM]	TGI (UACC-257 melanoma) [µM]	TGI (LOX IMVI melanoma) [µM]	TGI (OVCAR-5 ovarian) [µM]	TGI (U251 CNS) [µM]
S=C1N=C(Cl)/C(=C\c2ccccc2)N1	> 100	> 100	> 100	> 100	> 100	> 100	> 100	> 100	> 100	> 100	> 100	> 100	> 100	> 100	> 100	> 100	> 100	> 100	> 100	> 100
COc1cc2c(cc1OC)C(=O)N(NC1=NCCN1)C2=O	> 100	> 100	> 100	> 100	> 100	> 100	> 100	> 100	> 100	> 100	> 100	> 100	> 100	> 100	> 100	> 100	> 100	> 100	> 100	> 100
COc1ccc(N2C(=O)CC(c3c[nH]c4ncccc34)C2=O)cc1 (stereo not given)	> 76.9	> 100	> 100	19.5	> 100	40.7	> 31.6	20.1	> 100	> 100	> 58.3	35.2	44.9	40.5	36.5	43.6	38.5	> 100	> 100	> 100
COc1ccccc1CNC(=O)[C@H](Cc1ccc(O)cn1)NC(C)=O	> 100	> 100	> 100	> 100	> 100	> 100	> 100	> 100	> 100	> 100	> 100	> 100	> 100	> 100	> 100	> 100	> 100	> 100	> 100	> 100
N#CC(C#N)=Cn1c(=S)[nH]c2ccccc21	> 100	> 100	> 100	> 100	> 100	> 100	> 100	> 100	> 100	> 100	> 100	> 100	> 100	> 100	> 100	> 100	> 100	> 100	> 100	> 100
C/C(=N\Nc1nc2ccccc2s1)c1cc(C)ncn1	> 19.4	4.46	> 100	> 100	> 35.7	> 53.2	34.5	47.3	18.3	9.16	> 55.8	15.1	25.7	> 36.1	4.71	> 32	> 27.2	> 100	> 68.2	> 49.6
